In ChEMBL document CHEMBL5230119, “Development of differentiation modulators and targeted agents for treating neuroblastoma” (Eur J Med Chem, 2020):

What was measured:
[1] = Synergistic antiproliferative activity against MYCN amplified human Neuroblastoma cell in presence of OTX-015; assay type: functional, cell-based
[2] = Synergistic antiproliferative activity against MYCN amplified human Neuroblastoma cell in presence of JQ1
IMR-32 = assay: Antiproliferative activity against human IMR-32 cells assessed as cell growth inhibition; assay type: functional, cell-based

Cc1sc2c(c1C)C(c1ccc(Cl)cc1)=N[C@@H](CC(=O)NC(C)(C)C)c1nnc(C)n1-2
IC50 [1]: 1480 nM

Cc1sc2c(c1C)C(c1ccc(Cl)cc1)=N[C@@H](CC(=O)Nc1ccc(O)cc1)c1nnc(C)n1-2 [BIRABRESIB]
IC50 [2]: 839 nM

O=C(c1ccc(F)c(F)c1Nc1ccc(I)cc1F)N1CC(O)([C@@H]2CCCCN2)C1 [COBIMETINIB]
IC50 (IMR-32): 70 nM
